Results on 99 compounds are retold here after PubChem BioAssay AID1549 (Sanford-Burnham Center for Chemical Genomics, 2009).

SMILES strings stand for the structures. Active and inactive are the calls of the source. The rule behind the calls is not given here.

The target of the test is Influenza A virus M2 proton channel (A/TW/4845/1999 H1N1). Nature of the test: NMR binding screen, influenza A virus M2 proton channel, Kd (AID 1549). To be noted: M2 protein.
On to `Cc1cc(C(=O)Nc2sc3c(c2C#N)CCC3)no1`, for which the Kd is > 4 mM (inactive).

For `Fc1ccc(CN2CCCNCC2)cc1`, the Kd is > 4 mM (inactive).

With `C=CCNC(=O)c1nn2cccnc2c1Cl`, the Kd was > 4 mM (inactive). With `NC12CC3CC(C1)CC(O)(C3)C2`, the Kd was > 4 mM (inactive). In the case of `Nc1nc(NCc2ccco2)nn1-c1ccccc1`, the Kd was > 4 mM (inactive). Turning to `CCOC(=O)c1cnc2sccn2c1=O`, the Kd is > 4 mM (inactive). `COC1=CC23CCCN2CCc2cc4c(cc2C3C1O)OCO4` (centres undefined): the Kd was > 4 mM (inactive). As for `O=c1nc(C(F)(F)F)nc2ccccn12`, the Kd is > 4 mM (inactive). With `Cc1cc(C)nc(N2CC(=O)N(C)C2=N)n1` the figure was > 4 mM (inactive); with `O=C(Nc1ccon1)c1cccc(Cl)c1`, > 4 mM (inactive); with `CC(=O)Nc1ccc(NC(=O)/C=C\C(=O)O)cc1`, > 4 mM (inactive). On to `O=C(Nc1ccccc1)Nc1ccccc1`, for which the Kd was > 4 mM (inactive). Next, `Cc1noc(C)c1C(=O)Nc1ccccc1-c1ccccc1`: > 4 mM (inactive).

In the case of `O=C(Nc1nnc(-c2ccccc2Cl)o1)c1ccco1`, the Kd was > 4 mM (inactive). Next, `COc1ccc(NS(=O)(=O)c2ccc(N)cc2)nn1`: > 4 mM (inactive); `COc1ccc(N2C(=O)CCC2=O)c(OC)c1`: > 4 mM (inactive). With `N#CCSc1nnc2ccc3ccccc3n12`, the Kd is > 4 mM (inactive). As to `O=C(NC1CCS(=O)(=O)C1)c1cccs1` (centres undefined), the Kd was > 4 mM (inactive). Consider `CCCN1CCC(N2CCC(O)CC2)CC1`, for which the Kd is > 4 mM (inactive).

On to `NC(=O)c1ccc(N2C(=O)C=CC2=O)cc1Cl`, for which the Kd is > 4 mM (inactive). Take `O=C1NC(=S)NC(=O)C1=Cc1ccccc1O`: the Kd was > 4 mM (inactive). Consider `NC(=O)Cc1nc(-c2ccc(F)cc2)cs1`, for which the Kd is > 4 mM (inactive). Consider `CC1(C)SCC(C(=O)O)N1C=O` (centres undefined), for which the Kd was > 4 mM (inactive). For the compound `CC(C)(C)c1ccc(SCC(N)=O)cc1`, the Kd was > 4 mM (inactive). Regarding `Cc1cc(NC(=O)CCCn2cnc([N+](=O)[O-])n2)no1`, the Kd was > 4 mM (inactive). For `Cc1cccc(OCc2nnc(N)s2)c1`, the Kd is > 4 mM (inactive). For `COc1ccc(-c2c(C)n([O-])c(C)c(C)[n+]2=O)cc1`, the Kd was > 4 mM (inactive). `OCCNc1nc2ccc(Cl)cc2[nH]1`: the Kd was > 4 mM (inactive). As to `CC(=O)Nc1ccc2c(C)cc(=O)[nH]c2c1`, the Kd was > 4 mM (inactive).

For the compound `O=C1c2ccncc2C(=O)N1CO`, the Kd is > 4 mM (inactive).

As to `Cc1ccccc1NC(=O)/C=C\C(N)=O`, the Kd is > 4 mM (inactive).

Consider `CNC(=O)c1cc(S(=O)(=O)N(C)C)ccc1Cl`, for which the Kd was > 4 mM (inactive).

As to `O[C@H]1C=C2CCN3Cc4cc5c(cc4C(C23)[C@@H]1O)OCO5` (some centres undefined), the Kd is > 4 mM (inactive). With `Cc1nc2[nH]onc2c2nccc(=O)c12` the figure was > 4 mM (inactive); with `CC(=O)OCc1cc(=O)n(C)c(=O)n1C`, > 4 mM (inactive). On to `CC(=O)O[C@H]1CC[C@]2(C)C3CC[C@@]4(C)C(CC5O[C@@]6(CCC(C)CO6)[C@@H](C)C54)C3CC[C@@H]2C1` (some centres undefined), for which the Kd was > 4 mM (inactive). `O=C1NC(=S)NC(=O)C1=Cc1ccco1`: the Kd is > 4 mM (inactive).

With `CC(=O)c1cc(C)ccc1OC(=O)c1cccnc1`, the Kd was > 4 mM (inactive). Turning to `O=S1(=O)C=C(Nc2ccccc2)CC1`, the Kd is > 4 mM (inactive).

`COc1ccc(-c2cc(=O)c3c(OC(C)=O)cc(OC(C)=O)cc3o2)cc1`: the Kd was > 4 mM (inactive). For the compound `CC(=O)O[C@@H]1CC2C(C)(C)C(=O)C=C[C@]2(C)C2CC[C@@]3(C)[C@H](c4ccoc4)OC(=O)[C@H]4O[C@]43[C@@]21C` (some centres undefined), the Kd is > 4 mM (inactive). As for `CC(=O)Oc1c(C)c(C)c2c(c1C)CCC(C)(CCCC(C)CCCC(C)CCCC(C)C)O2` (centres undefined), the Kd is > 4 mM (inactive). Regarding `O=C(/C=C/c1ccccc1)c1ccc(O)cc1`, the Kd was > 4 mM (inactive). As for `CS(=O)(=O)N1CCN(C(=O)c2ccccc2F)CC1`, the Kd is > 4 mM (inactive). On to `O=C1C2C3C=CC(C3)C2C(=O)N1c1nccs1` (centres undefined), for which the Kd was > 4 mM (inactive).

For `CCSc1nc2ccccc2[nH]1`, the Kd was > 4 mM (inactive). `C=C1CSc2nc(=O)c3c(C)c(C)sc3n21`: the Kd was > 4 mM (inactive). For the compound `O=C(Nc1ccc2c(c1)OCCO2)c1ccncc1`, the Kd is > 4 mM (inactive).

For the compound `Cc1cc(=O)cc(C)n1NC(N)=S`, the Kd was > 4 mM (inactive). `O=C1CSC(=Nc2ccc(O)cc2)N1`: the Kd was > 4 mM (inactive).

Regarding `COC(=O)C1=CCCN(C)C1`, the Kd was > 4 mM (inactive).

As for `COc1ccc(-c2cc(=O)c3ccccc3o2)cc1OC`, the Kd was > 4 mM (inactive). With `NC(=O)CCn1c(=O)oc2ccccc21` the figure was > 4 mM (inactive); with `COc1ccc2c(c1)OC/C(=C/c1ccc(OC)c(OC)c1)C2=O`, > 4 mM (inactive); with `Cc1nc(SCC#N)c2c(C)c(C)sc2n1`, > 4 mM (inactive). Turning to `Cc1ccc(-c2nnn(CC(=O)O)n2)cc1`, the Kd is > 4 mM (inactive). `c1coc(-c2nc(-c3ccncc3)no2)c1`: the Kd is > 4 mM (inactive). Consider `CSc1nnc2[nH]c(=O)cc(N)n12`, for which the Kd was > 4 mM (inactive). Turning to `O=c1ccc2c([nH]1)CCCC2`, the Kd was > 4 mM (inactive). Next, `COc1ccc(Cl)cc1-c1nc(-c2ccncc2)no1`: > 4 mM (inactive). On to `N#Cc1cc(-c2ccccc2)oc1N`, for which the Kd is > 4 mM (inactive). `Cc1occc1C(=O)N1CCN(S(C)(=O)=O)CC1`: the Kd was > 4 mM (inactive). Next, `O=C1COc2ccc(C(=O)c3ccccc3)cc2CN1`: > 4 mM (inactive); `NC(=O)c1ccc(Cl)c(N2C(=O)CCC2=O)c1`: > 4 mM (inactive); `Cc1cc(C)n2c(SCc3cccs3)nnc2n1`: > 4 mM (inactive). For the compound `Nc1ccc(NC(=O)c2ccco2)c(Cl)c1`, the Kd is > 4 mM (inactive).

For the compound `COC(=O)c1scc(C)c1N`, the Kd was > 4 mM (inactive). As for `CC(=O)c1cc2c(cc1O)OC(C)(C)C=C2`, the Kd was > 4 mM (inactive). As to `Cc1c(C(=O)NC2=NCCS2)oc2ccccc12`, the Kd was > 4 mM (inactive).

As for `Cc1cc(C(=O)NC(C)c2ccncc2)no1` (centres undefined), the Kd was > 4 mM (inactive). On to `CCC(C)C(=O)O[C@@H]1C[C@@]2(C)[C@H](c3ccoc3)OC(=O)CC23OC2(C)OC34[C@H](OC(=O)C(C)C)[C@@]3(O)[C@@H](OC(=O)C5(C)OC5C)[C@@]5(C)C[C@]3(O)[C@@](C)([C@H]5CC(=O)OC)C14O2` (some centres undefined), for which the Kd is > 4 mM (inactive). For `OCc1cccc2c1OCCO2`, the Kd is > 4 mM (inactive). Consider `O=C(O)c1ccc2c(c1)CCO2`, for which the Kd is > 4 mM (inactive). `CS(=O)(=O)c1cccc(C(=O)Nc2nccs2)c1`: the Kd was > 4 mM (inactive). As for `COC(=O)C[C@H]1C2(C)CC34OC5(C)O[C@@]6([C@H](OC)C(OC(=O)C(C)C)[C@]7(C)C(/C(=C(/OC)C(C)C)C(=O)O[C@H]7c7ccoc7)[C@@]6(O5)[C@H](OC)[C@@]3(OC)C2OC(C)=O)[C@]14C` (some centres undefined), the Kd is > 4 mM (inactive).

In the case of `COc1ccc2c(c1)OC[C@@H](Cc1ccc(OC)c(OC)c1)[C@H]2O`, the Kd is > 4 mM (inactive). On to `Fc1cccc(F)c1CN1CCN(c2ncccn2)CC1`, for which the Kd is > 4 mM (inactive). Next, `CCCCCC(=O)Cc1cc(O)cc(O)c1C(=O)Oc1cc(CC(=O)CCCCC)c(C(=O)O)c(OC)c1`: > 4 mM (inactive); `O=C(Nc1ccccc1)c1cccc(N2C(=O)CCC2=O)c1`: > 4 mM (inactive). As for `O=C1C2C3CCC(O3)C2C(=O)N1c1cccc(F)c1` (centres undefined), the Kd is > 4 mM (inactive). For `Cc1ccc(C(=O)N2CC(=O)NC(=O)C2)cc1`, the Kd was > 4 mM (inactive). Regarding `O=C(O)Cn1cc(C(=O)c2cccs2)c2ccccc21`, the Kd was > 4 mM (inactive). As to `Cc1cc(C)nc(/N=C(\N)N2CCc3ccccc32)n1`, the Kd is > 4 mM (inactive). As for `O=C(NCC1CCNCC1)c1ccccn1`, the Kd was > 4 mM (inactive).

Turning to `O=C(NCc1cccs1)c1ccncc1`, the Kd is > 4 mM (inactive). Next, `NCc1c[nH]c2ccccc12`: > 4 mM (inactive). Take `O=C1CNC(=O)N1c1cccc(Cl)c1`: the Kd was > 4 mM (inactive). Next, `Fc1ccc(NC2=NCCS2)cc1Cl`: > 4 mM (inactive). Regarding `COc1cc(C(C)=O)ccc1OCC(O)Cn1ccnc1` (centres undefined), the Kd is > 4 mM (inactive). In the case of `O=c1ccn([C@@H]2O[C@H](COP(=O)(O)OP(=O)(O)OP(=O)(O)O)[C@@H](O)[C@H]2O)c(=O)[nH]1`, the Kd is > 4 mM (inactive). `COC(=O)C(O)[C@@H]1C2(C)C(=O)[C@@H](CC3=C4CC(=O)O[C@@H](c5ccoc5)[C@]4(C)CCC32)[C@H](OC(C)=O)C1(C)C` (some centres undefined): the Kd is > 4 mM (inactive). Next, `N#Cc1cnn(Cc2ccc(Cl)cc2)c1N`: > 4 mM (inactive). Consider `COc1ccc(NC(=O)C2CC(=O)N=C(N)S2)cc1` (centres undefined), for which the Kd is > 4 mM (inactive).

`C#CCCCCCCCCCCCC(O)CC(O)COC(C)=O` (centres undefined): the Kd is > 4 mM (inactive). As for `COc1c(O)cccc1O`, the Kd is > 4 mM (inactive).

With `OC[C@H]1O[C@@](CO)(O[C@@H]2O[C@H](CO)[C@@H](O)[C@H](O)[C@H]2O)[C@@H](O[C@@H]2O[C@H](CO)[C@@H](O)[C@H](O)[C@H]2O)[C@@H]1O`, the Kd is > 4 mM (inactive). In the case of `CON(C)C(=O)Nc1ccc(Cl)cc1`, the Kd is > 4 mM (inactive). For the compound `CC(=O)OC(C)(C)[C@@H]1Cc2cc3ccc(=O)oc3cc2O1`, the Kd was > 4 mM (inactive). Next, `COc1ccc(C2(CN)CCOCC2)cc1OC`: > 4 mM (inactive).
